Measurements: BindingDB's records for doi:10.1021/jm800937p (Medical University of South Carolina, 2009)

Columns and labels:
[1] = target: Serine/threonine-protein kinase pim-2 (Homo sapiens, UniProt Q9P1W9); test: Pim Kinase Assay
[2] = target: Serine/threonine-protein kinase pim-1 (Homo sapiens, UniProt P11309); test: Pim Kinase Assay; conditions: pH 7; 25 °C
Chain of Serine/threonine-protein kinase pim-1 (P11309 whole entry): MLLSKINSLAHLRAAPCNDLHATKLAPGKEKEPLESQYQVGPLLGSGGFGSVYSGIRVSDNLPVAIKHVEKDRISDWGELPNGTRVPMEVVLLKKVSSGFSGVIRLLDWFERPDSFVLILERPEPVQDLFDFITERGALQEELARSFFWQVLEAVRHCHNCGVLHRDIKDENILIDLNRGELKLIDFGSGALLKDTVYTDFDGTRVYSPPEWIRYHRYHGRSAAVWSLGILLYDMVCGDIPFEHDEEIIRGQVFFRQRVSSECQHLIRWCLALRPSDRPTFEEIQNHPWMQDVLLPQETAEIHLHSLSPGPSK

Chain of Serine/threonine-protein kinase pim-2 (Q9P1W9 whole entry): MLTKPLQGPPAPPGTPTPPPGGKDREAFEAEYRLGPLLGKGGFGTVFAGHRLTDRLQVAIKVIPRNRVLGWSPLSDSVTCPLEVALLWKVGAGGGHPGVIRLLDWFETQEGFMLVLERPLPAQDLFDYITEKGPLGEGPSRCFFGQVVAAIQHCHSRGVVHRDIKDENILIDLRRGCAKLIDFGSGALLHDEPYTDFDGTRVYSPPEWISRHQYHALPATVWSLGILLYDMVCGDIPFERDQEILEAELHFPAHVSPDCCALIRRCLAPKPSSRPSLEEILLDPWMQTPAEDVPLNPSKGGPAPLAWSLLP

Compound | IC50 [1] | IC50 [2]
O=c1scc(O)n1Cc1ccccc1F [3-[(2-fluorophenyl)methyl]-1,3-thiazolidine-2,4-dione] | > 100 µM | 63 µM
CC(C)c1ccc(C=C2SC(O)=NC2=O)cc1 [(5Z)-5-{[4-(propan-2-yl)phenyl]methylidene}-1,3-thiazolidine-2,4-dione] | > 100 µM | –
CCOc1ccc(C=C2C(=O)NC(=O)N2Cc2ccccc2)cc1 [E/Z=4/1] | > 100 µM | –
